This is an account of results in patent US20250122191A1, “COMPOUNDS AS BCL-2 INHIBITORS” (Fochon Biosciences, Ltd, priority 2021, published 2025).

Common to all, as to type: cell-based
In one assay the test system is RS4;11-BCL-2 G101V cells. Nature of the assay: Cell proliferation assay (MTS), RS4;11-BCL-2 G101V engineered cells. The settings on record: Homo sapiens, 120 h, read-out: RS4, 11 BCL2-G101V IC50. An outline of the steps: (§1)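 RS4;11 cells stably overexpressing mutant BCL-2 were seeded and pre-incubated 4 h (G101V, F104L) or 24 h (D103E, D103Y), then exposed to compound at 1.5–10000 nM for 120 h (G101V, F104L) or 72 h (D103E, D103Y) at 37 °C. Viability was read by MTS absorbance at 490 nm after 2 h; IC50 fitted.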

A further assay deals with RS4;11-BCL-2 F104L cells. Nature of the assay: Cell proliferation assay (MTS), RS4;11-BCL-2 F104L engineered cells. Particulars: Homo sapiens, 120 h, read-out: RS4, 11 BCL2-F104L IC50. An outline of the steps:
as §1

A further assay deals with RS4;11-BCL-2 D103E cells. Description: Cell proliferation assay (MTS), RS4;11-BCL-2 D103E engineered cells. The settings on record: Homo sapiens, 72 h, read-out: RS4, 11 BCL2-D103E IC50. The procedure, abridged: as §1
Another assay concerns Toledo cells. Nature of the assay: Cell proliferation assay (MTS), Toledo cells. Particulars: Homo sapiens, 72 h. An outline of the steps: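 Toledo cells (RPMI-1640, 10% FBS) seeded at 30000 cells/well, rested 4 h, then exposed 72 h at 37 °C, 5% CO2 to compound at nine final concentrations, 1.5–10000 nM. Viability by MTS (2 h), absorbance at 490 nm. IC50 from the concentration-response.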

In general, IC50 refers to the midpoint of a concentration-inhibition curve. Turning to `COc1cc(CN2CCN(C3CC4(CCN(c5ccc(C(=O)NS(=O)(=O)c6cnc(NC[C@H]7CC[C@](C)(O)CC7)c([N+](=O)[O-])c6)c(Oc6cc7c(F)c[nH]c7nc6OC)c5)CC4)C3)[C@H](c3ccccc3C(C)C)C2)cc(F)n1` [Example 53, 2-((3-fluoro-6-methoxy-1H-pyrrolo[2,3-b]pyridin-5-yl)oxy)-4-(2-((R)-4-((2-fluoro-6-methoxypyridin-4-yl)methyl)-2-(2-isopropylphenyl)piperazin-1-yl)-7-azaspiro[3.5]nonan-7-yl)-N-((6-((((1r,4r)-4-hydroxy-4-methylcyclohexyl)methyl)amino)-5-nitropyridin-3-yl)sulfonyl)benzamide], the IC50 with RS4;11-BCL-2 G101V cells, with RS4;11-BCL-2 F104L cells and with RS4;11-BCL-2 D103E cells was 1 nM each time.
Regarding `COc1cc(CN2CCN(C3CC4(CCN(c5ccc(C(=O)NS(=O)(=O)c6cnc(NC[C@H]7CC[C@](C)(O)CC7)c([N+](=O)[O-])c6)c(Oc6cc7c(F)c[nH]c7nc6OC)c5)CC4)C3)[C@H](c3ccccc3C(C)C)C2)cc(Cl)n1` [Example 54, 4-(2-((R)-4-((2-chloro-6-methoxypyridin-4-yl)methyl)-2-(2-isopropylphenyl)piperazin-1-yl)-7-azaspiro [3.5]nonan-7-yl)-2-((3-fluoro-6-methoxy-1H-pyrrolo[2,3-b]pyridin-5-yl)oxy)-N-((6-((((1r,4r)-4-hydroxy-4-methylcyclohexyl)methyl)amino)-5-nitropyridin-3-yl)sulfonyl)benzamide], the IC50 with RS4;11-BCL-2 G101V cells, in the assay on RS4;11-BCL-2 F104L cells and with RS4;11-BCL-2 D103E cells was 1 nM throughout.
Turning to `COc1nc2[nH]cc(F)c2cc1Oc1cc(N2CCC3(CC2)CC(N2CCN(Cc4ccnc(C)c4)C[C@H]2c2ccccc2C(C)C)C3)ccc1C(=O)NS(=O)(=O)c1cnc(NC[C@H]2CC[C@](C)(O)CC2)c([N+](=O)[O-])c1` [Example 355, 2-((3-fluoro-6-methoxy-1H-pyrrolo[2,3-b]pyridin-5-yl)oxy)-N-((6-((((1r,4r)-4-hydroxy-4-methylcyclohexyl)methyl)amino)-5-nitropyridin-3-yl)sulfonyl)-4-(2-((R)-2-(2-isopropylphenyl)-4-((2-methylpyridin-4-yl)methyl)piperazin-1-yl)-7-azaspiro[3.5]nonan-7-yl)benzamide], the IC50 in the assay on RS4;11-BCL-2 G101V cells, with RS4;11-BCL-2 F104L cells and in the assay on Toledo cells was 1 nM throughout.
For `Cc1cc(CN2CCN(C3CC4(CCN(c5ccc(C(=O)NS(=O)(=O)c6cnc(NC[C@H]7CC[C@](C)(O)CC7)c([N+](=O)[O-])c6)c(Oc6cnc7[nH]cc(F)c7c6)c5)CC4)C3)[C@H](c3ccccc3C(C)C)C2)ccn1` [Example 356, 2-((3-fluoro-1H-pyrrolo[2,3-b]pyridin-5-yl)oxy)-N-((6-((((1r,4r)-4-hydroxy-4-methylcyclohexyl)methyl)amino)-5-nitropyridin-3-yl)sulfonyl)-4-(2-((R)-2-(2-isopropylphenyl)-4-((2-methylpyridin-4-yl)methyl)piperazin-1-yl)-7-azaspiro[3.5]nonan-7-yl)benzamide], the values for the IC50 in the assay with RS4;11-BCL-2 G101V cells, in the assay on RS4;11-BCL-2 F104L cells and in the assay on Toledo cells were 1 nM, 2 nM and 1 nM, respectively.
`CC(C)c1ccccc1[C@@H]1CN(Cc2ccnc(Cl)c2)CCN1C1CC2(CCN(c3ccc(C(=O)NS(=O)(=O)c4cnc(NC[C@H]5CC[C@](C)(O)CC5)c([N+](=O)[O-])c4)c(Oc4cnc5[nH]cc(F)c5c4)c3)CC2)C1` [Example 358, 4-(2-((R)-4-((2-chloropyridin-4-yl)methyl)-2-(2-isopropylphenyl)piperazin-1-yl)-7-azaspiro[3.5]nonan-7-yl)-2-((3-fluoro-1H-pyrrolo[2,3-b]pyridin-5-yl)oxy)-N-((6-((((1r,4r)-4-hydroxy-4-methylcyclohexyl)methyl)amino)-5-nitropyridin-3-yl)sulfonyl)benzamide]: the IC50 in the assay on RS4;11-BCL-2 G101V cells worked out at 1 nM; in the assay on RS4;11-BCL-2 F104L cells it was 2 nM; in the assay with Toledo cells, 1 nM.
